# Test results from US20230028880A1, “CD38-BINDING AGENTS AND USES THEREOF” (Biohaven Therapeutics Ltd., priority 2019, published 2023).
# Where “and” joins values, the source holds several entries; their conditions need not be identical. Equal values may be shown once. Entries after “also recorded” stand apart in the source; their conditions may differ.
# Tests used:
# [1] = test system: multiple myeloma patient bone marrow plasma cells (CD38+ CD138+); assay: Patient bone marrow with autologous CIML NK cells: reduction of plasma cells; assay type: cell-based, human; conditions: 4 hr, IVIG 10 ug/ml (FIG. 7)
# Experimental: (§1) Patient bone marrow (3 ml) and blood (20 ml) were shipped at ambient temperature from Discovery Biosciences. Bone marrow was diluted 1:1 with PBS, and […] of bone marrow-PBS mixture was aliquoted into 96 deep well plates. Bone marrow cells were incubated overnight until CIML cells were added next day.
# (§2) PBMC were isolated from blood by Ficoll density gradient centrifugation. PBMC were centrifuged at 400 g for 10 min and re-suspended in EasySep buffer. NK cells were isolated using NK cell isolation kits from […] Technologies according to kit's manufacturers' instructions.
# (§3) NK cells were re-suspended at 1×10^6 cells/ml in XVIVO15, 10% Human Serum, IL-15 (50 ng/ml), IL-12 (10 ng/ml), IL-18 (50 ng/ml), and incubated for 18 hrs. Following overnight incubation with cytokines, NK cells were washed twice with PBS 5% Human Serum Albumin, counted and re-suspended at a cell density of 2×10^5 cells/ml of XVIVO15 media. Twenty microliters (4000 cells) were added per each well containing 50 µl of bone marrow: PBS mixture. […] Control wells received XVIVO15 media. Well contents were mixed by pipetting up and down and plates were centrifuged at 400 g for 1 min.
# (§4) The assay was then incubated for 4 hrs at 37° C. 5% CO2. […] Finally, cells were re-suspended in 200 µl of FACS Buffer and analyzed using Attune Flow Cytometer. Data were analyzed using FlowJo software and graphed using GraphPad Prism.
# [2] = test system: SUDHL-4 cells; assay: CIML NK cell SUDHL-4 cell ADCC assay; assay type: cell-based
# Experimental: CIML NK cell SUDHL-4 cell ADCC assay: SUDHL-4 cells were labelled with CFSE and re-suspended in XVIVO15 media containing 20% Human serum. Cells were aliquoted at 10,000 cells/well, 18 ul/well of 96 well V-bottom plates. NK cells (in PBS 5% HSA) were added at a 9:1 ratio (90,000 NK cell per well) in an equal volume (18 ul per well). Co-cultures were incubated overnight at 37° C. in a 5% CO2 atmosphere. Next day, cells were washed, and stained with the following reagents: Near Infra-Red Fixable viability dye (Thermo Fisher), CD3 FITC (Biolegend) and CD56 PE (Biolegend). Percentages of Dead SUDHL-4 cells were calculated by gating on CFSE+ cells that are also positive for Near Infrared Live Dead dye.
# Baseline activity was assessed by using NK cells that have not been stimulated with cytokine cocktail (non-CIML NK cells). FIG. 6 represents frequencies of dead SUDHL-4 cells in NK-SUDHL-4 cell co-cultures after 18 hours of incubation.
# [3] = test system: Effector cells (ADCC reporter cells) with Daudi cells; assay: ADCC reporter assay: Daudi cells, IVIG and ADCC reporter effector cells (luciferase, RLU); assay type: cell-based; conditions: IVIG; for Luminescence, ADCC reporter assay: duplicate columns
# Method in brief: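 Daudi targets (5,000/well) were combined with compound (8 concentrations, ½-log steps), human IVIG added at 40 ug/mL, and 37,500 ADCC reporter effector cells per well. After 18 h at 37° C and equilibration to 25° C, luciferase luminescence was read.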
# [4] = test system: Daudi cells; assay: KILR ADCC killing assay: KILR-transfected Daudi cells with purified NK cells (% dead cells); assay type: cell-based; conditions: for % dead cells, KILR ADCC killing assay: KILR Daudi cells with purified NK cells, duplicate columns
# Method in brief: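 Daudi cells carrying a KILR ePL-tagged beta-gal reporter were co-cultured with purified NK cells; cell death releases the reporter into the medium. Complementing enzyme acceptor in the detection reagent gives chemiluminescence, read as % dead cells.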
# [5] = test system: CD56+CD138- CIML NK cells; assay: Patient bone marrow with CIML NK cells: NK cell fratricide; assay type: cell-based, human; conditions: CIML NK cells co-incubated with patient bone marrow for 4 hrs (FIG. 8)
# Experimental: as §1, §2, §3, §4
compound,measurement,setting,value
CCCCC[C@@H]1NC(=O)[C@H](CCCNC(=N)N)NC(=O)[C@H](C)NC(=O)CSC[C@@H](C(=O)NCCOCCOCCOCCOCCOCCOCCn2nnc3c2CCC2C(CC3)C2COC(=O)N2CCC(C(=O)NCC(=O)N[C@H](CCC(=O)N[C@H](CCC(=O)N[C@H](CCC(=O)O)C(=O)N[C@H](CCC(=O)N[C@H](CCC(=O)NCC(=O)NCC(=O)N[C@@H](CC(=O)O)C(=O)N[C@H]3CSSC[C@@H](C(=O)N[C@H](C(=O)O)[C@@H](C)O)NC(=O)[C@H](Cc4c[nH]c5ccccc45)NC(=O)[C@H](C(C)C)NC(=O)[C@H](CC(C)C)NC(=O)[C@H](CCC(=O)O)NC(=O)CNC(=O)[C@H](CC(C)C)NC(=O)[C@H](Cc4c[nH]cn4)NC(=O)[C@H](Cc4c[nH]c5ccccc45)NC(=O)[C@H](C)NC3=O)C(=O)O)C(=O)O)C(=O)O)C(=O)O)CC2)NC(=O)[C@H](CC(=O)O)NC(=O)[C@H](CCCCC)NC(=O)[C@H](Cc2ccc(-c3ccccc3)cc2)NC(=O)[C@H](CC(C)C)NC(=O)[C@H](C(C)C)NC(=O)CNC(=O)[C@H](CC(=O)O)NC(=O)[C@H](Cc2c[nH]cn2)NC(=O)[C@H](Cc2ccc(O)cc2)NC1=O (stereo partly drawn) [I-17],reduction in the frequencies of CD38+ CD138+ cells in patient bone marrow,[1],effectively reduced frequency of plasma cells; also recorded: can reduce the number of plasma cells
same,increase in killing over background (DMSO-treated control),"[2]; CIML NK cells in combination with I-17, SUDHL-4 cells, 18 hours",66%
same,killing of SUDHL-4 cells in NK-SUDHL-4 co-cultures,[2]; FIG. 6,can effectively kill cancer cells
same,EC50,[3]; ADCC reporter assay,5.9 nM
same,EC70,"[3]; ADCC reporter cells, 18 h, one set of experiment (FIG. 2)",about 2.7 nM
same,"Luminescence, ADCC reporter assay","[3]; compound 0.3 nM, 18 h",26632 RLU and 25947 RLU
same,"Luminescence, ADCC reporter assay","[3]; compound 1 nM, 18 h",32303 RLU and 36226 RLU
same,"Luminescence, ADCC reporter assay","[3]; compound 3 nM, 18 h",50671 RLU and 54979 RLU
same,"Luminescence, ADCC reporter assay","[3]; compound 10 nM, 18 h",63014 RLU and 62702 RLU
same,"Luminescence, ADCC reporter assay","[3]; compound 30 nM, 18 h",69329 RLU and 70980 RLU
same,"Luminescence, ADCC reporter assay","[3]; compound 100 nM, 18 h",70908 RLU and 75233 RLU
same,"Luminescence, ADCC reporter assay","[3]; compound 300 nM, 18 h",69068 RLU and 69848 RLU
same,"Luminescence, ADCC reporter assay","[3]; compound 1000 nM, 18 h",60578 RLU and 59440 RLU
same,EC50,"[4]; KILR Daudi cells, purified NK cells, one set of experiments (FIG. 3)",5.9 nM
same,"% dead cells, KILR ADCC killing assay",[4]; compound 0.3 nM,5.8% and 5.1%
same,"% dead cells, KILR ADCC killing assay",[4]; compound 1 nM,5.6%
same,"% dead cells, KILR ADCC killing assay",[4]; compound 3 nM,6.4% and 7.1%
same,"% dead cells, KILR ADCC killing assay",[4]; compound 10 nM,7% and 7.7%
same,"% dead cells, KILR ADCC killing assay",[4]; compound 100 nM,8.9% and 10.1%
same,"% dead cells, KILR ADCC killing assay",[4]; compound 300 nM,8.5% and 9.6%
same,NK cell numbers / NK cell fratricide,[5],NK cell numbers did not change; also recorded: No or low level of undesired NK cell fratricide
